Assay results as given in patent US10745382B2 (BRISTOL-MYERS SQUIBB COMPANY, priority 2015, dated 2020).
Where two headings read alike, the source gives them in different places.

Target: T1, PD-1/PD-L1 (Homo sapiens, UniProt Q9NZQ7)
T1 construct: made in house; host or cells: HEK293T
Test: PD-1/PD-L1 Homogenous Time-Resolved Fluorescence (HTRF) binding assay
Settings: PD-L1-His 10 nM, PD-1-Ig 20 nM, read-out: Range or IC50
In short: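 Binding was measured by HTRF in dPBS with 0.1% BSA and 0.05% Tween-20. Detection used europium cryptate anti-Ig (1 nM final) and APC anti-His (20 nM final) added over the binding reaction.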

T1 sequence (Q9NZQ7 with tags, fused parts or gaps): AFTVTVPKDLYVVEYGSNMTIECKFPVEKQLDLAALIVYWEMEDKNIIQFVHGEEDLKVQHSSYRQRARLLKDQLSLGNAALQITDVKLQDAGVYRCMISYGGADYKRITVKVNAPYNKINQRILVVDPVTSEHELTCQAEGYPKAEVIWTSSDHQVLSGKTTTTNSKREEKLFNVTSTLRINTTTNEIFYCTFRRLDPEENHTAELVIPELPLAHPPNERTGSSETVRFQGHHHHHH

SMILES | IC50 (value given as range class) [nM] | IC50 (numeric IC50) [nM]
COC(=O)[C@@H]1CCCCN1CCCOc1cccc(-c2cccc(COc3cc(OCc4cncc(C#N)c4)c(CN4CCCC[C@H]4C(=O)O)cc3Cl)c2C)c1C [Example 2243, (2S)-1-(5-chloro-2-((5-cyanopyridin-3-yl)methoxy)-4-((3′-(3-((S)-2-(methoxycarbonyl)piperidin-1-yl)propoxy)-2,2′-dimethylbiphenyl-3-yl)methoxy)benzyl)piperidine-2-carboxylic Acid] | 0.21 to 10 | –
Cc1c(COc2cc(OCc3cncc(C#N)c3)c(CN3CCCC[C@H]3C(=O)O)cc2Cl)cccc1-c1cccc(OCCCN2CCCCC2C(N)=O)c1C (stereo partly drawn) [Example 2244, (2S)-1-(4-((3′-(3-(2-carbamoylpiperidin-1-yl)propoxy)-2,2′-dimethylbiphenyl-3-yl)methoxy)-5-chloro-2-((5-cyanopyridin-3-yl)methoxy)benzyl)piperidine-2-carboxylic Acid] | 0.21 to 10 | –
Cc1c(COc2cc(OCc3cncc(C#N)c3)c(CN3CCCC[C@H]3C(=O)O)cc2Cl)cccc1-c1cccc(OCCCN2CCCCC2C)c1C (stereo partly drawn) [Example 2245, (2S)-1-(5-chloro-2-((5-cyanopyridin-3-yl)methoxy)-4-((2,2′-dimethyl-3′-(3-(2-methylpiperidin-1-yl)propoxy)biphenyl-3-yl)methoxy)benzyl)piperidine-2-carboxylic Acid] | 0.21 to 10 | –
Cc1c(COc2cc(OCc3cncc(C#N)c3)c(CN3CCCC[C@H]3C(=O)O)cc2Cl)cccc1-c1cccc(OCCCN2CCC(N(C)C(=O)OC(C)(C)C)CC2)c1C [Example 2246, (2S)-1-(4-((3′-(3-(4-(tert-butoxycarbonyl(methyl)amino)piperidin-1-yl)propoxy)-2,2′-dimethylbiphenyl-3-yl)methoxy)-5-chloro-2-((5-cyanopyridin-3-yl)methoxy)benzyl)piperidine-2-carboxylic Acid] | 0.21 to 10 | –
Cc1c(COc2cc(OCc3cncc(C#N)c3)c(CN3CCCC[C@H]3C(=O)O)cc2Cl)cccc1-c1cccc(OCCCN2CC[C@H](F)C2)c1C [Example 2247, (2S)-1-(5-chloro-2-((5-cyanopyridin-3-yl)methoxy)-4-((3′-(3-((S)-3-fluoropyrrolidin-1-yl)propoxy)-2,2′-dimethylbiphenyl-3-yl)methoxy)benzyl)piperidine-2-carboxylic Acid] | 0.21 to 10 | –
Cc1c(COc2cc(OCc3cncc(C#N)c3)c(CN3CCCC[C@H]3C(=O)O)cc2Cl)cccc1-c1cccc(OCCCN2CCC(N3CCOCC3)CC2)c1C [Example 2248, (2S)-1-(5-chloro-2-((5-cyanopyridin-3-yl)methoxy)-4-((2,2′-dimethyl-3′-(3-(4-morpholinopiperidin-1-yl)propoxy)biphenyl-3-yl)methoxy)benzyl)piperidine-2-carboxylic Acid] | 0.21 to 10 | –
Cc1c(COc2cc(OCc3cncc(C#N)c3)c(CN3CCCC[C@H]3C(=O)O)cc2Cl)cccc1-c1cccc(OCCCN2CC3CC2CO3)c1C (stereo partly drawn) [Example 2249, (2S)-1-(4-((3′-(3-(2-oxa-5-azabicyclo[2.2.1]heptan-5-yl)propoxy)-2,2′-dimethylbiphenyl-3-yl)methoxy)-5-chloro-2-((5-cyanopyridin-3-yl)methoxy)benzyl)piperidine-2-carboxylic Acid] | 0.21 to 10 | –
CC(=O)N[C@@H]1CCN(CCCOc2cccc(-c3cccc(COc4cc(OCc5cncc(C#N)c5)c(CN5CCCC[C@H]5C(=O)O)cc4Cl)c3C)c2C)C1 [Example 2250, (2S)-1-(4-((3′-(3-((R)-3-acetamidopyrrolidin-1-yl)propoxy)-2,2′-dimethylbiphenyl-3-yl)methoxy)-5-chloro-2-((5-cyanopyridin-3-yl)methoxy)benzyl)piperidine-2-carboxylic Acid] | 0.21 to 10 | –
Cc1c(COc2cc(OCc3cncc(C#N)c3)c(CN3CCCC[C@H]3C(=O)O)cc2Cl)cccc1-c1cccc(OCCCN2CCCCC2CC(=O)O)c1C (stereo partly drawn) [Example 2251, (2S)-1-(4-((3′-(3-(2-(carboxymethyl)piperidin-1-yl)propoxy)-2,2′-dimethylbiphenyl-3-yl)methoxy)-5-chloro-2-((5-cyanopyridin-3-yl)methoxy)benzyl)piperidine-2-carboxylic Acid] | 0.21 to 10 | –
CO[C@@H]1CCN(CCCOc2cccc(-c3cccc(COc4cc(OCc5cncc(C#N)c5)c(CN5CCCC[C@H]5C(=O)O)cc4Cl)c3C)c2C)C1 [Example 2252, (2S)-1-(5-chloro-2-((5-cyanopyridin-3-yl)methoxy)-4-((3′-(3-((R)-3-methoxypyrrolidin-1-yl)propoxy)-2,2′-dimethylbiphenyl-3-yl)methoxy)benzyl)piperidine-2-carboxylic Acid] | 0.21 to 10 | –
Cc1c(COc2cc(OCc3cncc(C#N)c3)c(CN3CCCC[C@H]3C(=O)O)cc2Cl)cccc1-c1cccc(OCCCN(C)C)c1C [Example 2253, (2S)-1-(5-chloro-2-((5-cyanopyridin-3-yl)methoxy)-4-((3′-(3-(dimethylamino)propoxy)-2,2′-dimethylbiphenyl-3-yl)methoxy)benzyl)piperidine-2-carboxylic Acid] | – | 5.3
Cc1c(COc2cc(OCc3cncc(C#N)c3)c(CN(C)CC(O)CO)cc2Cl)cccc1-c1cccc(OCCCN(C)CC(O)CO)c1C (stereo not drawn) [Example 2254, 5-((4-chloro-2-(((2,3-dihydroxypropyl)(methyl)amino)methyl)-5-((3-(3-((2,3-dihydroxypropyl) (methyl)amino)propoxy)-2,2′-dimethylbiphenyl-3-yl)methoxy)phenoxy)methyl)nicotinonitrile] | 0.21 to 10 | –
Cc1c(COc2cc(OCc3cncc(C#N)c3)c(CN3CCCC(CO)C3)cc2Cl)cccc1-c1cccc(OCCCN2CCCC(CO)C2)c1C (stereo not drawn) [Example 2255, 5-((4-chloro-2-((3-(hydroxymethyl)piperidin-1-yl)methyl)-5-((3′-(3-(3-(hydroxymethyl)piperidin-1-yl)propoxy)-2,2′-dimethylbiphenyl-3-yl)methoxy)phenoxy)methyl)nicotinonitrile] | 0.21 to 10 | –
Cc1c(COc2cc(OCc3cncc(C#N)c3)c(CN3CCCCC3CO)cc2Cl)cccc1-c1cccc(OCCCN2CCCCC2CO)c1C (stereo not drawn) [Example 2256, 5-((4-chloro-2-((2-(hydroxymethyl)piperidin-1-yl)methyl)-5-((3′-(3-(2-(hydroxymethyl)piperidin-1-yl)propoxy)-2,2′-dimethylbiphenyl-3-yl)methoxy)phenoxy)methyl)nicotinonitrile] | 0.21 to 10 | –
Cc1c(COc2cc(OCc3cncc(C#N)c3)c(CN3CC[C@H](CO)[C@H](O)C3)cc2Cl)cccc1-c1cccc(OCCCN2CC[C@H](CO)[C@H](O)C2)c1C [Example 2257, 5-((4-chloro-2-(((3S,4R)-3-hydroxy-4-(hydroxymethyl)piperidin-1-yl)methyl)-5-((3′-(3-((3S,4R)-3-hydroxy-4-(hydroxymethyl)piperidin-1-yl)propoxy)-2,2′-dimethylbiphenyl-3-yl)methoxy)phenoxy)methyl)nicotinonitrile] | 0.21 to 10 | –
Cc1c(COc2cc(OCc3cncc(C#N)c3)c(CN3CCN(CCO)CC3)cc2Cl)cccc1-c1cccc(OCCCN2CCN(CCO)CC2)c1C [Example 2258, 5-((4-chloro-2-((4-(2-hydroxyethyl)piperazin-1-yl)methyl)-5-((3′-(3-(4-(2-hydroxyethyl)piperazin-1-yl)propoxy)-2,2′-dimethylbiphenyl-3-yl)methoxy)phenoxy)methyl)nicotinonitrile] | 0.21 to 10 | –
Cc1c(COc2cc(OCc3cncc(C#N)c3)c(CN3CCC[C@H](C(=O)O)C3)cc2Cl)cccc1-c1cccc(OCCCN2CCC[C@H](C(=O)O)C2)c1C [Example 2259, (3S)-1-(3-(3′-((4-(((S)-3-carboxypiperidin-1-yl)methyl)-2-chloro-5-((5-cyanopyridin-3-yl)methoxy)phenoxy)methyl)-2,2′-dimethylbiphenyl-3-yloxy)propyl)piperidine-3-carboxylic Acid] | 0.21 to 10 | –
Cc1c(COc2cc(OCc3cncc(C#N)c3)c(CN[C@@](C)(CO)C(=O)O)cc2Cl)cccc1-c1cccc(OCCCN2CCCC(CO)C2)c1C (stereo partly drawn) [Example 2260, (2S)-2-(5-chloro-2-((5-cyanopyridin-3-yl)methoxy)-4-((3′-(3-(3-(hydroxymethyl)piperidin-1-yl)propoxy)-2,2′-dimethylbiphenyl-3-yl)methoxy)benzylamino)-3-hydroxy-2-methylpropanoic Acid] | 0.21 to 10 | –
Cc1c(COc2cc(OCc3cncc(C#N)c3)c(CN[C@@](C)(CO)C(=O)O)cc2Cl)cccc1-c1cccc(OCCCN2CC[C@H](CO)[C@H](O)C2)c1C [Example 2261, (2S)-2-(5-chloro-2-((5-cyanopyridin-3-yl)methoxy)-4-((3′-(3-((3 S,4R)-3-hydroxy-4-(hydroxymethyl)piperidin-1-yl)propoxy)-2,2′-dimethylbiphenyl-3-yl)methoxy)benzylamino)-3-hydroxy-2-methylpropanoic Acid] | 0.21 to 10 | –
Cc1c(COc2cc(OCc3cncc(C#N)c3)c(CN[C@@](C)(CO)C(=O)O)cc2Cl)cccc1-c1cccc(OCCCN2CCC[C@H](O)C2)c1C [Example 2262, (2S)-2-(5-chloro-2-((5-cyanopyridin-3-yl)methoxy)-4-((3′-(3-((S)-3-hydroxypiperidin-1-yl)propoxy)-2,2′-dimethylbiphenyl-3-yl)methoxy)benzylamino)-3-hydroxy-2-methylpropanoic Acid] | 0.21 to 10 | –
Cc1c(COc2cc(OCc3cncc(C#N)c3)c(CN[C@@](C)(CO)C(=O)O)cc2Cl)cccc1-c1cccc(OCCCN2CCN(CCO)CC2)c1C [Example 2263, (2S)-2-(5-chloro-2-((5-cyanopyridin-3-yl)methoxy)-4-((3′-(3-(4-(2-hydroxyethyl)piperazin-1-yl)propoxy)-2,2′-dimethylbiphenyl-3-yl)methoxy)benzylamino)-3-hydroxy-2-methylpropanoic Acid] | 0.21 to 10 | –
